We go through 23 compounds from patent publication US6534524B1, “Indazole compounds and pharmaceutical compositions for inhibiting protein kinases, and methods for their use” (Agouron Pharmaceuticals, Inc., priority 1999, dated 2003).

For series [1], the target named is unphosphorylated VEGF-R2Δ50 (FLVK) (Homo sapiens, UniProt P35968, DEL940-989/E990V). Kind of series: VEGF-R2 coupled spectrophotometric assay, unphosphorylated VEGF-R2Δ50 (FLVK). As to conditions: FLVK Ki, Table 1.
The target in series [2] is phosphorylated VEGF-R2Δ50 (FLVK-P) (Homo sapiens, UniProt P35968, DEL940-989/E990V). Kind of series: VEGF-R2 coupled spectrophotometric assay, phosphorylated VEGF-R2Δ50 (FLVK-P).
Sequence of phosphorylated VEGF-R2Δ50 (FLVK-P) (P35968 with tags, fused parts or gaps DEL940-989/E990V limits assumed): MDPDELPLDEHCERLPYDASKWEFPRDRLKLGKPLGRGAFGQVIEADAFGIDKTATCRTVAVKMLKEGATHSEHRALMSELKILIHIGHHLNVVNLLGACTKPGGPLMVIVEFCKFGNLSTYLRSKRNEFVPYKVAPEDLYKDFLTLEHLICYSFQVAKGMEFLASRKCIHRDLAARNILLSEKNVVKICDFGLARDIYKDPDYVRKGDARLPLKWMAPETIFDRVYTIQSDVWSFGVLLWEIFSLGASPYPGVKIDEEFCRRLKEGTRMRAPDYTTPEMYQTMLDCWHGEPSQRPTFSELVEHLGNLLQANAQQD
Series [3] relates to human umbilical vein endothelial cells (HUVEC). Kind of series: HUVEC proliferation assay (VEGF-stimulated, MTT). It is filed as cell-based. The following applies: Homo sapiens, HUVEC, + albumin; read-out: HUVEC + albumin IC50.
The nature of series [4]: Human liver microsome (HLM) assay. It is filed as in vitro ADME. The following applies: human liver microsomes, 5 μM test compound. In short, it runs like this:
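LC-MS quantified test compound remaining after 0 and 2 h incubation with human liver microsomes. Triplicate samples, clarified by 10 min centrifugation at 14000 g.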

In a further series the target is T1, human CHK1 (FL-CHK1) (Homo sapiens, UniProt O14757).
T1 construct: C-terminally His-tagged full-length human CHK1 (FL-CHK1); made in house; host or cells: baculovirus/insect cell system
T1 sequence (O14757 1-476): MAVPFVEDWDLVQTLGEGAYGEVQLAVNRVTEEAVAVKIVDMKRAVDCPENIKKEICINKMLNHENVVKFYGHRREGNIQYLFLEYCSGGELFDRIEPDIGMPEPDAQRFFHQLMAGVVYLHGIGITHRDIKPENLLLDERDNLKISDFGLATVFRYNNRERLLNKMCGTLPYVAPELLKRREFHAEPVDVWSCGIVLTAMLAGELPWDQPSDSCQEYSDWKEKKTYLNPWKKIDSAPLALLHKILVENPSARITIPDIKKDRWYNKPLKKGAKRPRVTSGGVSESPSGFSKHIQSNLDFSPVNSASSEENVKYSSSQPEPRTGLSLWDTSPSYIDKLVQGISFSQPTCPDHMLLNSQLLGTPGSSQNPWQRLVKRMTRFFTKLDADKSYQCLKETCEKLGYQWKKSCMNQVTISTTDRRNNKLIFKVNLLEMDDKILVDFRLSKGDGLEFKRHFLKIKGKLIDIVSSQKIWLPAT
Briefly: CHK1 assay (coupled spectrophotometric, Syntide-2). It is filed as biochemical. As to conditions: Table 1; read-out: CHK-1 Ki. In outline: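 Full-length C-terminally His-tagged human CHK1 expressed in baculovirus/insect cells, used at 10 nM with Syntide-2 substrate. ADP formation coupled via PK/LDH to NADH oxidation, followed as absorbance decrease at 340 nm. Ki from initial rates at varying compound concentrations.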

The target in another series is CDK2/Cyclin A (Homo sapiens, UniProt P24941). Kind of series: CDK2/Cyclin A assay ([32P]ATP, Rb fragment). It is filed as biochemical.
Another series concerns the target human FGF-R1 (Homo sapiens, UniProt P11362, C488A/C584S/L457V). Briefly: FGF-R spectrophotometric assay.
A short description of series [5]: Determination of inhibitor concentration in mouse plasma after intraperitoneal and oral dosing. It is filed as in vivo. As to conditions: for concentration at 7 h: female. In outline:
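Plasma levels quantified by HPLC or LC-MS using a standard curve prepared in mouse plasma, following ethyl acetate extraction with internal standard and sodium hydroxide. Sampling at 0.5, 1, 4 h (ocular bleed) and 7 h (cardiac puncture) after oral or intraperitoneal dosing.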

Another series deals with CDK4/Cyclin D3 complex (Homo sapiens, UniProt P11802). Kind of series: CDK4/Cyclin D assay ([32P]ATP, Rb fragment).
Sequence of CDK4/Cyclin D3 complex (P11802 whole entry, the tested form may be a part): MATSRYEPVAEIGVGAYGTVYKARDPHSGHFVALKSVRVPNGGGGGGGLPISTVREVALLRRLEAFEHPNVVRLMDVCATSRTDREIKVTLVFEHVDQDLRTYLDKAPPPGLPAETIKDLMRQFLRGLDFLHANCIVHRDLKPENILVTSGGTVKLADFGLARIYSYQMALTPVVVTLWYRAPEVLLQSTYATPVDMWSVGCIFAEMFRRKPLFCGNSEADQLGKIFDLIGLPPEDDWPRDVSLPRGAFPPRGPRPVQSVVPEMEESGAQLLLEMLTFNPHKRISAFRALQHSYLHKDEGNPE
Sequence of CDK4/Cyclin D3 complex (P30281 whole entry partner, the tested form may be a part): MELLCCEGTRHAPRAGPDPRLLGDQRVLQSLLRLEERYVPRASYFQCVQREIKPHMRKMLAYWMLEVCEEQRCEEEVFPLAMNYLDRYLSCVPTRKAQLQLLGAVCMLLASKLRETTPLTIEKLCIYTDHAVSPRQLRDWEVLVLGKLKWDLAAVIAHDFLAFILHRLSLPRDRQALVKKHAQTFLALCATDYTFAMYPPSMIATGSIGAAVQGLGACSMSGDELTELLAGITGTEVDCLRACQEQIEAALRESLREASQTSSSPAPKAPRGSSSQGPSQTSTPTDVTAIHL
Where [6] appears, read: IP, 25 mg/kg, vehicle PEG400:H2O pH 2.3 30:70.
The mark [7] stands for this setting: PO, 50 mg/kg, vehicle PEG400:H2O pH 2.3 30:70.
Where [8] appears, read: PO, 25 mg/kg, vehicle PEG400:H2O pH 2.3 30:70.
[9] abbreviates: IP, 25 mg/kg, vehicle PEG400:H2O pH 2.3 60:40.
Setting [10] is: PO, 50 mg/kg, vehicle PEG400:H2O pH 2.3 60:40.

pIC50, pKi: −log10 of the molar value. Like-named read-outs stand apart in the source and are kept apart here.

Sequence of unphosphorylated VEGF-R2Δ50 (FLVK) (P35968 with tags, fused parts or gaps DEL940-989/E990V limits assumed): as the sequence (P35968 with tags, fused parts or gaps DEL940-989/E990V limits assumed) above
Sequence of human FGF-R1 (P11362 456-766 L457V/C488A/C584S): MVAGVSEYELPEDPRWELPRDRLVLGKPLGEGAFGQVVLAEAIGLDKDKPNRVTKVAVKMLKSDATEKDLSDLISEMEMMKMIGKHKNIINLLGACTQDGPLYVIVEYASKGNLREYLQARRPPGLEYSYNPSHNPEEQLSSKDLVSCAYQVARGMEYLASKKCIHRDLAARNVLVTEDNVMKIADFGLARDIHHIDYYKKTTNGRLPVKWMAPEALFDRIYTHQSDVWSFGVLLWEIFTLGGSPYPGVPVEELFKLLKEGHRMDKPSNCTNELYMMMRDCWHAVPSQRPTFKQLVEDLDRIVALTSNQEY

What is called pKi is the negative decadic logarithm of the Ki, by convention in mol/L. On to `CC(=O)Nc1cccc(C(=O)c2ccc3c(/C=C/c4ccccc4)n[nH]c3c2)c1` [Example 19(a), N-[3-(3-Styryl-1H-indazole-6-carbonyl)-phenyl]-acetamide], for which the pKi is 7.86 in [1] and 8.17 in series [2].

With `Nc1cccc(C(=O)c2ccc3c(/C=C/c4ccccn4)n[nH]c3c2)c1` [Example 40(a), 6(3-Amino-benzoyl)-3-E-[2-(pyridin-2-yl)ethenyl]-1H-indazole], the pKi in series [2] was 7.75.

The inhibition is the percentage by which the read-out fell short of the control. The pIC50 is −log10 of the IC50, conventionally taken in molar units. Regarding `O=CNc1ccccc1/C=C/c1n[nH]c2cc(C(=O)c3cccc(NC(=O)c4ccccc4)c3)ccc12` [Example 43, 6-(3-Benzamidobenzoyl)-3-E-[2-(2-formamidophenyl)ethenyl]-1H-indazole], the inhibition at 0.05 µM in series [2] (read-out: FLVK-P % inhibition) was found to be 56%. The pIC50 in series [3] is 7.62.

As to `C=C(c1cccc(NC(C)=O)c1)c1ccc2c(/C=C/c3ccccc3)n[nH]c2c1` [Example 23, 6-(1-(3-Acetamido-phenyl)-vinyl)-3-styryl-1H-indazole], the pKi in series [1] was 8.80; in series [2] it was 8.68. The “% remain (HLM, 2 h)” value in series [4] was 74%.

Regarding `CN(C)c1cccc(C(=O)Nc2cccc(N(C)c3ccc4c(/C=C/c5ccc6c(c5)OCO6)n[nH]c4c3)c2)c1` [Example 16(c), N-(3-{[3-(2-Benzo[1,3]dioxol-5-yl-vinyl)-1H-indazol-6-yl]-methyl-amino}-phenyl)-3-dimethylamino-benzamide], the pKi in series [2] was 8.96.

For `COc1cc(-c2ccc3c(/C=C/c4ccc(NC(=O)CN)cc4)n[nH]c3c2)ccc1O` [Example 26, 6(4-Hydroxy-3-methoxyphenyl)-3-[E-2-(4-glycylamino-phenyl)-ethenyl]-1H-indazole], the negative logarithm of the Ki (pKi) in [2] is 8.96; at human CHK1 (FL-CHK1), 8.18; at CDK2/Cyclin A (Table 1), 8.49.

What is called Cmax is the highest concentration seen after dosing. As to `CCn1nc(C)cc1C(=O)Nc1cccc(C(=O)c2ccc3c(/C=C/c4ccccn4)n[nH]c3c2)c1` [Example 41(a), 6-[3-((1-Ethyl-3-methyl-1H-pyrazol-5-yl)carboxamido)benzoyl]-3-E-[2-(pyridin-2-yl)ethenyl]-1H-indazole], the pKi was 7.70 at human FGF-R1 and 10.52 in series [1]. The AUClast was 92823 ng·h/mL in series [5] (setting [6]) and 48998 ng·h/mL in [5] (setting [7]). Besides, the Cmax in series [5] (setting [6]) came out at 32202 ng/mL; in series [5] (setting [7]), 18433 ng/mL. For the same compound, the “plasma half-life (T1/2)” value in series [5] (setting [6]) came to 2.9 h; in [5] (setting [7]) it was 3.4 h. Further, the concentration at 7 h was found to be 3860 ng/mL in series [5] (IP, 25 mg/kg, vehicle PEG400:H2O pH 2.3 30:70, read-out: Cmin (7 hr conc.)) and 2460 ng/mL in series [5] (PO, 50 mg/kg, vehicle PEG400:H2O pH 2.3 30:70, read-out: Cmin (7 hr conc.)). Also, the “% remain (HLM, 2 h)” value in series [4] is given as 96%.

For `Cc1cncc(C(=O)Nc2cccc(C(=O)c3ccc4c(/C=C/c5ccccc5)n[nH]c4c3)c2)c1` [Example 19(e), 6-[3-(5-Methylpyridin-3-ylcarboxamido)benzoyl]-3-E-styryl-1H-indazole], in [2], the negative logarithm of the Ki (pKi) was 7.70.

On human FGF-R1, `CONC(=O)c1ccccc1Sc1ccc2c(/C=C/c3ccccn3)n[nH]c2c1` [Example 35(r), 6-[2-(Methoxycarbamoyl)phenylsulfanyl]-3-E-[2-(pyridin-2-yl)ethenyl]-1H-indazole] had a pKi of 7.70. In series [5] (setting [8]), the AUClast was found to be 4261 ng·h/mL and the “plasma half-life (T1/2)” value stood at 1.3 h. Further, in series [5] (PO, 25 mg/kg, vehicle PEG400:H2O pH 2.3 30:70, read-out: Cmin (7 hr conc.)), the concentration at 7 h worked out at 67 ng/mL. Also, the negative logarithm of the Ki (pKi) in series [1] is 9.96. In addition, the “% remain (HLM, 2 h)” value in [4] came to 51%.

With `O=C(Nc1cccc(Cl)c1)c1ccccc1Sc1ccc2c(/C=C/c3ccccn3)n[nH]c2c1` [Example 33(d), 6-[2-(3-Chlorophenylcarbamoyl)phenylsulfanyl]-3-E-[2-(pyridin-2-yl)ethenyl]-1H-indazole], the negative logarithm of the Ki (pKi) on human FGF-R1 is 7.62; in series [1], 9.85. Besides, the AUClast in series [5] (setting [9]) is 5080 ng·h/mL; in series [5] (setting [10]) it was 4744 ng·h/mL. For the same compound, the “plasma half-life (T1/2)” value in series [5] (setting [9]) worked out at 1.6 h; in series [5] (setting [10]), 0.9 h. Further, the concentration at 7 h was 113 ng/mL in [5] (IP, 25 mg/kg, vehicle PEG400:H2O pH 2.3 60:40, read-out: Cmin (7 hr conc.)) and 8 ng/mL in [5] (PO, 50 mg/kg, vehicle PEG400:H2O pH 2.3 60:40, read-out: Cmin (7 hr conc.)). Further, in series [4], the “% remain (HLM, 2 h)” value amounted to 22%.

The compound `Cc1cccc(C(=O)Nc2cccc(Oc3ccc4c(-c5cc6ccccc6[nH]5)n[nH]c4c3)c2)c1` [Example 6(b)] gave a pKi in [2] of 9.82.

For `CSc1cc(O)ccc1-c1ccc2c(-c3nc4ccccc4[nH]3)n[nH]c2c1` [Example 24(k), 3-1H-Benzoimidazol-2-yl-6-(2-methylsulfanyl-4-hydroxyphenyl)-1H-indazole], the pKi is 8.14 at CDK4/Cyclin D3 complex, 6.80 at human FGF-R1 and 7.25 at CDK2/Cyclin A (Table 2).

As to `C=C(c1cccc(NC(=O)c2ncc(C)s2)c1)c1ccc2c(/C=C/c3ccccc3)n[nH]c2c1` [Example 22(a), 6-(1-(3-(5-Methyl-thiaxole-2-carboxoylamido)phenyl)-vinyl)-3-styryl-1H-indazole], the pKi in [1] is 9.66; in series [2], 9.70.

As for `O=C(Nc1cccc(Sc2ccc3c(/C=C/c4ccccc4)n[nH]c3c2)c1)c1ccccc1` [Example 20(b), 6(3-(Benzoylamido)-phenylsulfanyl)-3-styryl-1H-indazole], the figures for the pKi in series [1] and in series [2] were 8.80 and 8.10, respectively.

`CC(C)C(=O)Nc1cccc(C(=O)c2ccc3c(/C=C/c4ccccc4)n[nH]c3c2)c1` [Example 19(h), 6-[3-(2-Methylpropionamido)benzoyl]-3-E-styryl-1H-indazole] had a pKi in [2] of 8.23.

In [2], `CN(c1cccc(N)c1)c1ccc2c(/C=C/c3ccc4c(c3)OCO4)n[nH]c2c1` [Example 15, N-[3-(2-Benzo[1,3]dioxol-5-yl-vinyl)-1H-indazol-6-yl]-N-methyl-benzene-1,3-diamine] showed a pKi of 7.82.

In the case of `O=C(Nc1cccc(C(=O)c2ccc3c(/C=C/c4ccccc4)n[nH]c3c2)c1)OCc1ccccc1` [Example 19(c)], in [2], the pKi was 8.23.

As for `Nc1cccc(Nc2ccc3c(/C=C/c4ccccc4)n[nH]c3c2)c1` [Example 46], the negative logarithm of the Ki (pKi) in [2] was 8.46.

As for `CN(c1cccc(NC(=O)c2ccc(O)c(C(C)(C)C)c2)c1)c1ccc2c(/C=C/c3ccc4c(c3)OCO4)n[nH]c2c1` [Example 16(f)], the pKi in series [2] is 8.55.

In turn, `CC(=O)N1CCC(C(=O)Nc2cccc(Oc3ccc4c(/C=C/c5ccc(Cl)cc5)n[nH]c4c3)c2)CC1` [Example 30(b), 6-[3-(1-Acetylpiperidin-4-ylcarboxamido)phenoxy]-3-E-[2-(4-chlorophenyl)ethenyl]-1H-indazole] had a pKi in series [2] of 8.66.

Take `C(=C\c1n[nH]c2cc(Sc3ccccc3)ccc12)/c1ccccc1` [Example 8(c)]: the pKi in [1] is 8.59; in series [2], 7.80; at human CHK1 (FL-CHK1), < 5.00.

For `C=C(c1cccc(NC(=O)c2ccccc2)c1)c1ccc2c(/C=C/c3ccccc3)n[nH]c2c1` [Example 22(b), 6-(1-(3-(Benzoylamido)phenyl)-vinyl)-3-styryl-1H-indazole], the results for the pKi in [1] and in series [2] were 9.20 and 8.92, respectively.

As for `O=C(Nc1cccc(C(=O)c2ccc3c(/C=C/c4ccccc4)n[nH]c3c2)c1)c1ccccc1` [Example 19(b), N-[3-(3-Styryl-1H-indazole-6-carbonyl)-phenyl]-benzamide], the “plasma half-life (T1/2)” value in series [5] (setting [10]) is “∞”. In addition, the pKi was 9.31 in [1] and 8.18 in [2].
